# In PubChem BioAssay (NCI):
#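 How tested: cells in 96-well plates exposed to compound for 48 hours at five concentrations. Abbreviation: GI50, concentration required for 50% inhibition of growth. At the TGI there is no net growth.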
# What was measured:
# Assay in all cases: NCI-60 cell line screen, 48 h
# [1] = system: TK-10 renal
# [2] = system: UACC-62 melanoma
# [3] = system: RPMI-8226 leukemia
# [4] = system: LOX IMVI melanoma
# [5] = system: KM12 colon
# [6] = system: MDA-MB-435
# [7] = system: SNB-19 CNS
# [8] = system: HCT-116 colon
# [9] = system: M14 melanoma
# [10] = system: OVCAR-8 ovarian
# [11] = system: UO-31 renal
# [12] = system: NCI-H226 lung
# [13] = system: K-562 leukemia
# [14] = system: ACHN renal
# [15] = system: SF-268 CNS
# [16] = system: RXF 393 renal
# [17] = system: DU-145 prostate
# [18] = system: NCI-H522 lung
# [19] = system: SN12C renal
# [20] = system: SK-MEL-28 melanoma
# [21] = system: EKVX NSCLC
# [22] = system: HOP-62 NSCLC
# [23] = system: IGROV1 ovarian
# [24] = system: HOP-92 NSCLC
# [25] = system: SK-OV-3 ovarian
# [26] = system: MCF7 breast
# [27] = system: PC-3 prostate
# [28] = system: SF-295 CNS
# [29] = system: SW-620 colon
# [30] = system: T-47D breast
# [31] = system: CAKI-1 renal
# [32] = system: COLO 205 colon
# [33] = system: U251 CNS
# [34] = system: SK-MEL-5 melanoma
# [35] = system: SK-MEL-2 melanoma
# [36] = system: A549 NSCLC
# [37] = system: HS 578T breast
# [38] = system: NCI-H460 lung
# [39] = system: OVCAR-5 ovarian
# [40] = system: MDA-MB-231 breast
# [41] = system: UACC-257 melanoma
# [42] = system: HCC-2998 colon
# [43] = system: 786-0 renal
# [44] = system: SF-539 CNS
# [45] = system: SR leukemia
# [46] = system: OVCAR-4 ovarian
# [47] = system: SNB-75 CNS
# [48] = system: NCI/ADR-RES ovarian
# [49] = system: NCI-H23 lung
# [50] = system: HCT-15 colon
smiles,measurement,setting,value
COc1cc2cnc3c(c2c(OC)c1OC)Cc1cc2c(cc1-3)OCO2,GI50,[1],752 nM
same,TGI,[1],2900 nM
same,GI50,[2],204 nM
same,TGI,[2],11.2 µM
same,GI50,[3],559 nM
same,TGI,[3],> 100 µM
same,GI50,[4],78.9 nM
same,TGI,[4],> 100 µM
same,GI50,[5],255 nM
same,TGI,[5],874 nM
same,GI50,[6],207 nM
same,TGI,[6],446 nM
same,GI50,[7],> 100 µM
same,TGI,[7],> 100 µM
same,GI50,[8],69.4 nM
same,TGI,[8],> 100 µM
same,GI50,[9],550 nM
same,TGI,[9],> 55.1 µM
same,TGI,[10],> 29.4 µM
same,GI50,[11],10.9 µM
same,TGI,[11],> 100 µM
same,GI50,[12],88.3 µM
same,TGI,[12],> 100 µM
same,GI50,[13],156 nM
same,TGI,[13],> 87.9 µM
same,GI50,[14],243 nM
same,TGI,[14],> 29.1 µM
same,GI50,[15],2740 nM
same,TGI,[15],> 100 µM
same,GI50,[16],10.9 µM
same,TGI,[16],47.9 µM
same,GI50,[17],> 36.1 µM
same,TGI,[17],> 100 µM
same,GI50,[18],408 nM
same,TGI,[18],3.46 µM
same,GI50,[19],602 nM
same,TGI,[19],> 100 µM
same,GI50,[20],42.6 µM
same,TGI,[20],> 100 µM
same,GI50,[21],7.54 µM
same,TGI,[21],> 100 µM
same,GI50,[22],234 nM
same,TGI,[22],10.9 µM
same,GI50,[23],2860 nM
same,TGI,[23],> 100 µM
same,TGI,[24],> 28.5 µM
same,GI50,[25],69.3 µM
same,TGI,[25],> 100 µM
same,GI50,[26],1320 nM
same,TGI,[26],> 24.8 µM
same,GI50,[27],4.49 µM
same,TGI,[27],> 100 µM
same,GI50,[28],591 nM
same,TGI,[28],> 32.8 µM
same,GI50,[29],1350 nM
same,TGI,[29],> 100 µM
same,GI50,[30],> 100 µM
same,TGI,[30],> 100 µM
same,GI50,[31],256 nM
same,TGI,[31],1760 nM
same,GI50,[32],743 nM
same,TGI,[32],> 100 µM
same,GI50,[33],310 nM
same,TGI,[33],> 21.8 µM
same,GI50,[34],682 nM
same,TGI,[34],13.3 µM
same,GI50,[35],1410 nM
same,TGI,[35],> 65.1 µM
same,GI50,[36],2640 nM
same,TGI,[36],> 100 µM
same,GI50,[37],2380 nM
same,TGI,[37],> 50.7 µM
same,GI50,[38],1390 nM
same,TGI,[38],> 100 µM
same,GI50,[39],> 40.8 µM
same,TGI,[39],> 100 µM
same,GI50,[40],710 nM
same,TGI,[40],> 27.8 µM
same,GI50,[41],990 nM
same,TGI,[41],> 100 µM
same,GI50,[42],> 100 µM
same,TGI,[42],> 100 µM
same,GI50,[43],3.23 µM
same,TGI,[43],> 82.5 µM
same,GI50,[44],869 nM
same,TGI,[44],12 µM
same,GI50,[45],49.1 nM
same,TGI,[45],305 nM
same,GI50,[46],> 100 µM
same,TGI,[46],> 100 µM
same,GI50,[47],> 100 µM
same,TGI,[47],> 100 µM
same,GI50,[48],10.8 µM
same,TGI,[48],> 74.8 µM
same,GI50,[49],2300 nM
same,TGI,[49],> 100 µM
same,GI50,[50],102 nM
same,TGI,[50],> 32.3 µM
